Reference: patent US20220135968A1, “TREATMENT OF SYNUCLEINOPATHY AND ANIMAL MODELS OF SYNUCLEINOPATHY” (TORREY PINES LAW GROUP, PC, priority 2018, published 2022)
“Also recorded” adds a separate entry of the source.

How the values were obtained:
patients = details: cited from earlier work; for disease symptoms in patients: treatment reported in literature
Parkinson's mouse models = Parkinson's mouse models (Patki, 2011); cited from earlier work
MNT-1 cells [1] = experiment: Glucose consumption of cells in culture exposed to α-MSH; type: cell-based, human; details: α-MSH exposed vs not exposed cells, low nutrient conditions, FIG. 4A
MNT-1 cells [2] = experiment: Immunofluorescence staining of intracellular α-synuclein in MNT-1 cells; type: cell-based, human
Text: (§1) FIGS. 1-6 show the induction of synucleinopathy in vitro and in vivo upon exposure to α-MSH employing the MNT-1 cell line (a gift from Michael S. Marks, Ph.D.) as an in vitro model of neuromelanin-containing neurons and the mouse administered α-MSH by intranasal route, respectively. […] Additionally, rapamycin induced autophagy was reduced in the prescence of α-MSH (FIG. 1A). Normally an increase in melanin production by MNT-1 is observed in the presence of rapamycin, since rapamycin induces autophagy and autophagy-related genes that promote melanogenesis. Melanin levels serve as a reliable readout of autophagy in MNT-1 (Kalie, 2013). Indeed, a decrease in melanin was observed when autophagy was inhibited in melanocytes (Zhang, 2015).
FIGS. 2C, 3, and 4C show human ASIP inhibiting the effects of α-MSH in cellular models and is an effective therapeutic for preventing and reversing synuclein pathology. ASIP was tested as a therapeutic for synucleinopathy in the in vitro cellular model of neuromelanin-containing neurons modeled by MNT-1 cells. […] Immunofluorescence from the α-MSH and ASIP treated cells display similar quantity of α-synuclein compared to healthy, non-treated cells. […]

MNT-1 cells [3] = experiment: Apoptosis by fluorescence-based detection of activated caspases (microscopy, flow cytometry); type: cell-based, human; details: FIG. 4B
Text: (§2) FIGS. 4A-C depict the mechanism of cell death induced by α-MSH and inhibition by ASIP, which blocks cell death. […] Vulnerable cells appear with higher fluorescence intensity for the marker of apoptosis, while untreated cells remain alive and show only background fluorescence (top-left panel). […] FIG. 4C is a bar chart depicting ASIP blocking α-MSH effects and protecting against cell death.
as §1

[4] = test system: substantia nigra of mouse; experiment: Immunohistochemistry of mouse brain sections for alpha-synuclein; type: in vivo; details: mouse given α-MSH in left nostril, anti-mouse alpha synuclein staining, FIG. 6a
Protocol: FIGS. 6A-B are immunohistochemistry microscopy photographs of brain sections stained with anti-mouse alpha synuclein (BD Biosciences, Clone 42/α-Synuclein).
Three mice were given the inducer, α-MSH, which was administered once every other day for one month through an intranasal route through the left nostril (FIG. 5a), and one mouse not subjected to the α-MSH inducer served as a healthy control. Observations and measurements were taken weekly at the end of α-MSH administration. […] The control mouse not subjected to α-MSH maintained normal gait and leg movement. Gait impairment observed in the three mice given the α-MSH, is characteristic of motor symptoms associated with PD and MSA symptoms. Moreover, the time-dependent intensified serverity of gait impairment after α-MSH administration is indicative of disease progression as measured through manisfestation of worsening physical symptoms. A cardinal feature of synucleinopathy pathology is the presence of aggregated intracellular alpha-synuclein, which is the predominant constituent of Lewy bodies and glial cytoplasmic inclusions (GCIs) observed in the affected regions of the brain in PD, MSA and DLB. […] Pathology was absent in the control mouse not subjected to α-MSH (FIG. 6b).

MNT-1 cells [5] = experiment: Rapamycin-induced autophagy in MNT-1 cells, melanin content as readout; type: cell-based, human; details: autophagy induced by rapamycin, exposure to α-MSH, FIG. 1A
Text: FIG. 1A is a bar chart depicting α-MSH disabling autophagy in MNT-1 cells when autophagy is induced by rapamycin.
as §1
A human pigmented cell line MNT-1 was utilized as a model for pigmented dopaminergic neurons to assess synuclein pathology following exposure to the inducer, α-MSH. […] Additionally, cell autophagy induced by rapamycin or starvation was disabled (FIGS. 1A and 1B). […] With time, vulnerable cells begin to die and undergo apoptotic cell death as measured by caspase activity (FIG. 4B). α-Synuclein accumulation and aggregation, loss of melanin and cell death by apoptosis are cardinal features observed in synuclein diseases such as PD and MSA.

mice = experiment: Induction of synucleinopathy in mice by intranasal α-MSH, gait on rotorod; type: in vivo, mouse; details: α-MSH intranasal left nostril every other day for one month
Text: FIGS. 5A-B depict the in vivo induction of synucleinopathy in mice by α-MSH. FIG. 5A is a drawing showing the administration of α-MSH into the left nostril of the mouse and a timeline showing frequency of administration and behavioral testing performed by rotorod. FIG. 5B is a series of rotorod testing photographs of a mouse chronically administered α-MSH by intranasal route for a period of 1 month to induce synucleinopathy (see FIG. 5a).
Three mice were given the inducer, α-MSH, which was administered once every other day for one month through an intranasal route through the left nostril (FIG. 5a), and one mouse not subjected to the α-MSH inducer served as a healthy control. Observations and measurements were taken weekly at the end of α-MSH administration. […] The control mouse not subjected to α-MSH maintained normal gait and leg movement. Gait impairment observed in the three mice given the α-MSH, is characteristic of motor symptoms associated with PD and MSA symptoms. Moreover, the time-dependent intensified serverity of gait impairment after α-MSH administration is indicative of disease progression as measured through manisfestation of worsening physical symptoms. […]
Three mice were given the inducer, α-MSH, through an intranasal route and one mouse was not subjected to α-MSH. The gait of all four mice was monitored every […] after subjection to one month of α-MSH treatment. […]

MNT-1 cells [6] = experiment: Starvation-induced (nutrient-depleted) autophagy and melanin formation in MNT-1 cells; type: cell-based, human; details: starved MNT-1 cells, α-MSH treated vs untreated, FIG. 1B
Text: FIG. 1B is a photograph of cells in wells of a culture plate depicting starvation-induced autophagy in cells is inhibited by α-MSH resulting in inhibition of melanin production.
as §1
A human pigmented cell line MNT-1 was utilized as a model for pigmented dopaminergic neurons to assess synuclein pathology following exposure to the inducer, α-MSH. […] With time, vulnerable cells begin to die and undergo apoptotic cell death as measured by caspase activity (FIG. 4B). α-Synuclein accumulation and aggregation, loss of melanin and cell death by apoptosis are cardinal features observed in synuclein diseases such as PD and MSA.

MNT-1 cells [7] = experiment: Cell viability of α-MSH exposed cells with ASIP; type: cell-based, human; details: α-MSH exposed cells with 200 nM ASIP vs without ASIP, FIG. 4C
Text: as §2
(§3) FIGS. 2C, 3, and 4C show human ASIP inhibiting the effects of α-MSH in cellular models and is an effective therapeutic for preventing and reversing synuclein pathology. ASIP was tested as a therapeutic for synucleinopathy in the in vitro cellular model of neuromelanin-containing neurons modeled by MNT-1 cells. […] Immunofluorescence from the α-MSH and ASIP treated cells display similar quantity of α-synuclein compared to healthy, non-treated cells. This indicates ASIP inhibits the accumulation and aggregation of intracellular α-synuclein, and additionally has the potential to reverse the accrual of toxic protein aggregates and reverse impairment of autophagy. […] Thus, as a therapeutic ASIP promotes an environment ideal for recovery and is amenable for cell restoration strategies. Based on the in vitro cellular model presented herein, ASIP halts induction and progression of synucleinopathy and reverses the disease.

MNT-1 cells [8] = experiment: ASIP reversal of α-MSH induced block in autophagy, melanin content; type: cell-based, human; details: α-MSH exposed cells treated with ASIP vs not treated, FIG. 3
Protocol: as §3

Molecule: COc1ccc2[nH]cc(CCNC(C)=O)c2c1 [melatonin]
- disease symptoms in patients (patients): improved PD symptoms
- locomotor deficits (Parkinson's mouse models): stalled locomotor deficits

Molecule: Pro-Leu-Gly-NH2
- disease symptoms in patients (patients): improvement in disease symptoms

Molecule: α-Melanocyte Stimulating Hormone [α-MSH]
- glucose consumption (MNT-1 cells [1]): glucose consumption is observed to be faster; also recorded: consume glucose faster than untreated cells
- accumulation and aggregation of intracellular α-synuclein (MNT-1 cells [2]; MNT-1 cells exposed to α-MSH vs not exposed, FIG. 2B): inducing accumulation and aggregation of α-synuclein; also recorded: increase in intensity of immunofluorescence staining of intracellular α-synuclein
- apoptotic events (flow cytometry, marker of apoptosis) (MNT-1 cells [3]; 4, 7 and 9 days of exposure to α-MSH vs medium alone): increasing apoptotic events
- cell death by apoptosis (fluorescence microscopy) (MNT-1 cells [3]; α-MSH exposed cells, 6 days): die by apoptosis
- alpha-synuclein aggregation in substantia nigra [4]: synuclein pathology was observed in the substantia nigra; also recorded: alpha-synuclein aggregation observed in a neuron located in the left substantia nigra; also recorded: Lewy body-like aggregate of alpha-synuclein in the left substantia nigra
- rapamycin-induced cellular autophagy / melanin levels (MNT-1 cells [5]): disabled; also recorded: lower melanin levels; also recorded: reduced
- gait / leg impairment (mice; four, six and eight weeks after): progressive leg impairment; also recorded: impaired/weakened right hind leg, loss of symmetry in gait; also recorded: progressive weakness and deteriorating motor control
- gait / leg impairment (mice; two weeks after end of treatment): No apparent leg impairment; also recorded: normal gait; also recorded: No significant gait impairment
- starvation-induced autophagy / melanin formation (MNT-1 cells [6]): lack of melanin; also recorded: melanin formation is not observed; also recorded: inhibited autophagy and melanin formation

Molecule: β-Melanocyte Stimulating Hormone [β-MSH]
- skin darkening in treated patients (patients; patients treated with β-MSH (Cotzias, 1967)): darkenening of skin of treated patients
- disease symptoms in patients (patients): worsening of Parkinsonian symptoms

B1: Agouti Signaling Protein (protein, UniProt P42127 23-132, looked up)
Agouti-signaling protein: HLPPEEKLRDDRSLRSNSSVNLLDVPSVSIVALNKKSKQIGRKAAEKKRSSKKEASMKKVVRPRTPLSAPCVATRNSCKPPAPACCDPCASCQCRFFRSACSCRVLSLNC
- inhibition of α-MSH induced α-synuclein accumulation (MNT-1 cells [2]; MNT-1 cells exposed to α-MSH and ASIP, FIG. 2C): halt α-synuclein accumulation and aggregation induced by α-MSH; also recorded: inhibition of α-MSH induced accumulation of α-synuclein; also recorded: decreased levels of α-synuclein measured by immunofluorescence
- cell viability (protection against cell death) (MNT-1 cells [7]): protects against cell death; also recorded: viability is higher; also recorded: Cells maintain viability
- melanin content (restoration of cellular autophagy) (MNT-1 cells [8]): restoring melanin production; also recorded: increase in melanin content; also recorded: restoration of melanin levels
